Paper PMC9246773, “Assessing the Activity of Antimicrobial Peptides Against Common Marine Bacteria Located in Rotifer (Brachionus plicatilis) Cultures” (Probiotics and Antimicrobial Proteins, 2022)
No end group written: not given here.

Columns and labels:
Type in all cases: cell-based
[1] = test system: Vibrio harveyi (ATCC 35084); conditions: ATCC 35084, 48 h
Experimental: (§1) A range of bacterial species with the potential to be transferred to developing fish larvae as pathogens or probiotics were selected for use in the study (Table 2). Bacterial isolates were stored at −80 °C and thawed, and 25 µL of the isolates was spread onto marine salt agar (MSA) media. All isolates were incubated at 25 °C for 18 h to reach mid-log growth phase. All isolates were sub-cultured and identified using mass spectrometry (MALDI-TOF) using the BioTyper and MBT 8468 library (Bruker Pty Ltd). The isolate Tenacibaculum discolor was plated on Anacker and Oradal’s marine (AOM) media, incubated for 48 h and identified using the aforementioned method. Bacterial isolates were suspended in sterile saline (0.75% NaCl w/v) to 0.5 McFarland standard. […] The bacterial isolates T. discolor and Pseudoalteromonas sp. require marine salts to grow and were not added to MHB (0‰). The isolate T. discolor requires low nutrients to grow, therefore, a separate MHB (25‰) was prepared at a diluted ratio of 1 part MHB and 7 parts artificial seawater (25‰).
(§2) The protocol was followed to determine the minimum inhibitory concentration (MIC) of the selected peptides. Two MIC assays were performed, firstly to determine whether each peptide precipitated in MHB and thereby required acetic acid adjustments (supplementary materials) and secondly, to determine the antimicrobial activity of each peptide in artificial seawater (25‰). Peptide stock solutions (1.3 mg mL^−1) were made by diluting the peptides in sterile deionised water. MHB was made with deionised water to reach a concentration of approaching 0‰ and artificial sea salts (Sigma-Aldrich® S9883) to reach a salinity of 25‰.
(§3) A broth microdilution protocol was followed to test whether the AMPs precipitated in MHB. The isolates T. discolor and Pseudoalteromonas were excluded from this assay because they required marine salts for growth. The peptides HHC10 and HHC36 previously required acetic acid adjustments according to [63] and were not trialled in this assay. To test if peptides required acetic acid, each peptide was diluted 1:2 in acetic acid (0.02% acetic acid w/v, containing 0.4% BSA) solution. In a 96-well polypropylene microtitre plates (Costar® 3879), 100 µL of this peptide stock was added to the first well for each bacterial isolate tested and serially diluted 2-fold with acetic acid (0.01% acetic acid w/v, containing 0.2% BSA). From each well, 10 µL of each peptide concentration was added to the corresponding wells of a new 96-well microtitre plate. From each of the bacterial suspensions in MHB (0‰), 90 µL was added to each well. […] From each of the bacterial suspensions in MHB (0‰), 50 µL was added to each well. All peptide concentrations ranged from 0.125 - 65µg mL^-1 and the bacterial suspension in each well was approximately 5 × 10^5 CFU mL^-1. Antimicrobial peptides that have an MIC value two or more dilutions higher in the assay with no acetic acid, compared to the assay with acetic acid, require acetic acid adjustments. The 96-well plates were incubated at 25 °C and read at 24 and 48 hours. The MIC was visually determined using a Sensititre™ Vizion™ Digital MIC Viewing System (Thermo Scientific™), and the lowest AMP concentration that had no bacterial growth was recorded as the MIC after 48 hours. Each bacterium was trialled in duplicate.

[2] = test system: Vibrio rotiferianus; conditions: 48 h
Experimental: as §1, §2, §3

[3] = test system: Vibrio alginolyticus; conditions: 48 h
Experimental: as §1, §2, §3

[4] = test system: Vibrio scophthalmi; conditions: 48 h
Experimental: as §1, §2, §3

[5] = test system: Shewanella sp.; conditions: 48 h
Experimental: as §1, §2, §3

[6] = test system: Escherichia coli (ATCC 25922); conditions: ATCC 25922, 48 h
Experimental: as §1, §2, §3

[7] = test system: Vibrio harveyi; conditions: 48 h
Experimental: as §1, §2, §3

[8] = test system: Vibrio harveyi (ATCC 35084); conditions: ATCC 35084, 48 h; remark: listed apart in the source
Experimental: as §1, §2
(§4) Once the acetic acid requirement for each peptide was determined (Table 3), the antimicrobial activity of each peptide was tested at a salinity of 0‰ and 25‰ for all bacterial isolates. A stock solution for peptides that required acetic acid was prepared by a 1:2 dilution in acetic acid (0.02% acetic acid w/v, containing 0.4% BSA) solution. In a 96-well polypropylene microtitre plates (Costar® 3879), 100 µL of this peptide stock was added to the first well for each bacterial isolate tested and serially diluted twofold with acetic acid (0.01% acetic acid w/v, containing 0.2% BSA). From each well, 10 µL of each peptide concentration was added to the corresponding wells of a new 96-well microtitre plate. From each of the bacterial suspensions (0‰), 90 µL was added to each well. […] Twofold serial dilutions were made with MHB (0‰). From each of the bacterial suspensions (0‰), 50 µL was added to each well. The same method was followed for testing peptides in MHB at 25‰. All peptide concentrations ranged from 0.125 to 65 µg mL^−1, and the bacterial suspension in each well was approximately 5 × 10^5 CFU mL^−1. The different salinities were used to compare any differences in antimicrobial activity in 0‰ and 25‰ water. […] Each bacterium was trialled in duplicate.

[9] = test system: Vibrio rotiferianus; conditions: 48 h; remark: listed apart in the source
Experimental: as §1, §2, §4

[10] = test system: Vibrio alginolyticus; conditions: 48 h; remark: listed apart in the source
Experimental: as §1, §2, §4

[11] = test system: Pseudoalteromonas sp.; conditions: 48 h
Experimental: as §1, §2, §4

[12] = test system: Vibrio scophthalmi; conditions: 48 h; remark: listed apart in the source
Experimental: as §1, §2, §4

[13] = test system: Shewanella sp.; conditions: 48 h; remark: listed apart in the source
Experimental: as §1, §2, §4

[14] = test system: Escherichia coli (ATCC 25922); conditions: ATCC 25922, 48 h; remark: listed apart in the source
Experimental: as §1, §2, §4

[15] = test system: Tenacibaculum discolor; conditions: 48 h
Experimental: as §1, §2, §4

[16] = test system: Vibrio harveyi; conditions: 48 h; remark: listed apart in the source
Experimental: as §1, §2, §4

Substance	MIC V. harveyi ATCC 35084, Acetic [1] [µg/mL]	MIC V. harveyi ATCC 35084, No acetic [1] [µg/mL]	MIC V. rotiferianus, Acetic [2] [µg/mL]	MIC V. rotiferianus, No acetic [2] [µg/mL]	MIC V. alginolyticus, Acetic [3] [µg/mL]	MIC V. alginolyticus, No acetic [3] [µg/mL]	MIC V. scophthalmi, Acetic [4] [µg/mL]	MIC V. scophthalmi, No acetic [4] [µg/mL]	MIC Shewanella sp., Acetic [5] [µg/mL]	MIC Shewanella sp., No acetic [5] [µg/mL]	MIC E. coli ATCC 25922, Acetic [6] [µg/mL]	MIC E. coli ATCC 25922, No acetic [6] [µg/mL]	MIC V. harveyi, Acetic [7] [µg/mL]	MIC V. harveyi, No acetic [7] [µg/mL]	MIC V. harveyi ATCC 35084, salinity 0‰ [8] [µg/mL]	MIC V. harveyi ATCC 35084, salinity 25‰ [8] [µg/mL]	MIC V. rotiferianus, salinity 0‰ [9] [µg/mL]	MIC V. rotiferianus, salinity 25‰ [9] [µg/mL]	MIC V. alginolyticus, salinity 0‰ [10] [µg/mL]	MIC V. alginolyticus, salinity 25‰ [10] [µg/mL]	also measured
WVGVIIKWGLKL-NH2 [Peptide 3018]	16.25	8.13	8.13	4.06	8.13	4.06	0.25	2.03	16.25	8.13	> 65	16.25	16.25	16.25	32.5	> 65	8.13	> 65	2.03	> 65	MIC Pseudoalteromonas sp., salinity 25‰ [11]: > 65 µg/mL; MIC V. scophthalmi, salinity 0‰ [12]: 1.02 µg/mL; MIC V. scophthalmi, salinity 25‰ [12]: > 65 µg/mL; MIC Shewanella sp., salinity 0‰ [13]: 16.25 µg/mL; MIC Shewanella sp., salinity 25‰ [13]: > 65 µg/mL; MIC E. coli ATCC 25922, salinity 0‰ [14]: 65 µg/mL; MIC E. coli ATCC 25922, salinity 25‰ [14]: > 65 µg/mL; MIC T. discolor, salinity 25‰ [15]: > 65 µg/mL; MIC V. harveyi, salinity 0‰ [16]: 16.25 µg/mL; MIC V. harveyi, salinity 25‰ [16]: > 65 µg/mL
RRQWRGWVRIWL-NH2 [Peptide 3005]	16.25	16.25	4.06	1.02	4.06	16.25	1.02	0.25	4.06	8.13	> 65	> 65	4.06	1.02	4.06	> 65	1.02	> 65	2.03	> 65	MIC Pseudoalteromonas sp., salinity 25‰ [11]: > 65 µg/mL; MIC V. scophthalmi, salinity 0‰ [12]: 0.13 µg/mL; MIC V. scophthalmi, salinity 25‰ [12]: 65 µg/mL; MIC Shewanella sp., salinity 0‰ [13]: 8.13 µg/mL; MIC Shewanella sp., salinity 25‰ [13]: 65 µg/mL; MIC E. coli ATCC 25922, salinity 0‰ [14]: 4.06 µg/mL; MIC E. coli ATCC 25922, salinity 25‰ [14]: > 65 µg/mL; MIC T. discolor, salinity 25‰ [15]: > 65 µg/mL; MIC V. harveyi, salinity 0‰ [16]: 4.06 µg/mL; MIC V. harveyi, salinity 25‰ [16]: > 65 µg/mL
